Assay [1] is filed under the species Homo sapiens. As to the kind of experiment: Selectivity ratio of IC50 for c-Myc/Max (unknown origin) to IC50 for AP-1 complex (unknown origin).
In assay [2] the target is Transcription factor Jun (Homo sapiens, UniProt P05412). In words: Inhibition of AP-1 complex (unknown origin).
The target of assay [3] is T1, c-Myc/Max (Homo sapiens, UniProt P01106+P61244). As to the kind of experiment: Inhibition of c-Myc/Max (unknown origin). It is filed as protein-complex assay.
T1 sequence (P01106 whole entry): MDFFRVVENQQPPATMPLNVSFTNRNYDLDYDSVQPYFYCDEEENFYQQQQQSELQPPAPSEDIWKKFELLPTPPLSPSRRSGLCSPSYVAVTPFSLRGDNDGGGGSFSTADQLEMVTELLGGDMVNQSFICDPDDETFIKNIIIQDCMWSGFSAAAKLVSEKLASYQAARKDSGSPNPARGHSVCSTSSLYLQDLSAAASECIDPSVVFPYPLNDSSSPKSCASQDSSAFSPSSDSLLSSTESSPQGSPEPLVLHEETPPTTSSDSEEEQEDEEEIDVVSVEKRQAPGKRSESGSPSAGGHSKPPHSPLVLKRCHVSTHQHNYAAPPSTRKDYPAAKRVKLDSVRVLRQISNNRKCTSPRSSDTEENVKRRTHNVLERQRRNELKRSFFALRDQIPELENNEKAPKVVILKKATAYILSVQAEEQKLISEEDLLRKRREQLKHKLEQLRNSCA
T1 sequence (P61244 whole entry): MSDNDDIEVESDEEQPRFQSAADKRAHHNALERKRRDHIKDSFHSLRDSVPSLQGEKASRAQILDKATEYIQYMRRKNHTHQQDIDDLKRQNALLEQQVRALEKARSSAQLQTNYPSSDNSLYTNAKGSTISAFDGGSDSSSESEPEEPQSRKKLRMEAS
Assay [4] has as its target T2, Lymphoid enhancer-binding factor 1 (Homo sapiens, UniProt Q9UJU2). In words: Inhibition of LEF-1 (unknown origin) expressed in CEF assessed as inhibition of beta catenin interaction by electrophoretic mobility shift assay. (In general: A gel shift assay detects complexes by their altered migration in electrophoresis.)
The target in assay [5] is T2, Lymphoid enhancer-binding factor 1. As to the kind of experiment: Inhibition of LEF-1-mediated gene transcription in HEK293 cells after 48 hrs by luciferase reporter gene assay. The class given is cell-based. In general terms: A reporter such as luciferase makes a cellular process visible.
Assay [6] deals with Transcription factor AP1 (Homo sapiens, UniProt P01100+P05412). As to the kind of experiment: Inhibition of c-FOS/AP1 (unknown origin). The class given is protein-complex assay.
Chain of Transcription factor AP1 (P05412 whole entry): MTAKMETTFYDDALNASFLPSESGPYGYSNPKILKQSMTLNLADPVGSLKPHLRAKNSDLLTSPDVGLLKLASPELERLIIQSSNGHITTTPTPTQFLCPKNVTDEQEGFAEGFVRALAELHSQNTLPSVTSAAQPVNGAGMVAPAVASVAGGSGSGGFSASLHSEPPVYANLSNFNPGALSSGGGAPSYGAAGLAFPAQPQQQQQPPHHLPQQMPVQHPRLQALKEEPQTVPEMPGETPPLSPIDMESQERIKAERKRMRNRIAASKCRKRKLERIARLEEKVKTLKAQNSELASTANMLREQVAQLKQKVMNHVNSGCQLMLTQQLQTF
Chain of Transcription factor AP1 (P01100 whole entry): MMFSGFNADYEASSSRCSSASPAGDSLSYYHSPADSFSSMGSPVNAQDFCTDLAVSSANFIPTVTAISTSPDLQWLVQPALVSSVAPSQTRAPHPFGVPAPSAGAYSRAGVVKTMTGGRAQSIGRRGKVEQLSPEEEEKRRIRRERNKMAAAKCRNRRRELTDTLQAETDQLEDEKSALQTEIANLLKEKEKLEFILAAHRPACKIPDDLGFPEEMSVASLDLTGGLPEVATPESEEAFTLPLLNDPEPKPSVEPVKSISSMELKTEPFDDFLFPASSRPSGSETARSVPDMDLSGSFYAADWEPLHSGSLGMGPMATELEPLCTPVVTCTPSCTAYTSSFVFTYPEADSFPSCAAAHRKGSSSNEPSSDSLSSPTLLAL
Assay [7] concerns the target T3, Myc proto-oncogene protein (Homo sapiens, UniProt P01106). As to the kind of experiment: Inhibition of c-MYC in human HL60 cells by chemiluminescence assay. It is filed as cell-based, HL-60.
For assay [8], the target named is T1, c-Myc/Max. In words: Inhibition of c-Myc/Max (unknown origin) DNA-binding activity. The class given is protein-complex assay.
Assay [9] addresses Protein max (Homo sapiens, UniProt P61244). As to the kind of experiment: Inhibition of dimerized Max (unknown origin) DNA-binding activity.
Assay [10] is filed under the species Homo sapiens. In words: Selectivity ratio of IC50 for dimerized Max (unknown origin) to IC50 for c-Myc/Max (unknown origin).
Assay [11] deals with T3, Myc proto-oncogene protein. As to the kind of experiment: Binding affinity to c-MYC (353 to 437) (unknown origin) by fluorescence polarization assay. In general terms: Fluorescence polarisation rises when a labelled molecule tumbles more slowly, as on binding a larger partner.
Assay [12] concerns HL-60. In words: Antiproliferative activity against human HL60 cells. The class given is functional, cell-based.
For assay [13], the species on record is Homo sapiens. As to the kind of experiment: Ratio of curcumin IC50 to compound IC50 for AP-1 complex (unknown origin).
For assay [14], the target named is T1, c-Myc/Max. As to the kind of experiment: Inhibition of c-Myc/Max (unknown origin) DNA-binding activity preincubated for 1 hr followed by DNA addition measured after 15 mins by electrophoretic mobility shift assay. It is filed as protein-complex assay.

In general, IC50 refers to the concentration that gives 50% inhibition.

Bridge positions count the residues as written; N and C are the ends. Peptide text beside a SMILES is read from it.

T2 sequence (Q9UJU2 whole entry): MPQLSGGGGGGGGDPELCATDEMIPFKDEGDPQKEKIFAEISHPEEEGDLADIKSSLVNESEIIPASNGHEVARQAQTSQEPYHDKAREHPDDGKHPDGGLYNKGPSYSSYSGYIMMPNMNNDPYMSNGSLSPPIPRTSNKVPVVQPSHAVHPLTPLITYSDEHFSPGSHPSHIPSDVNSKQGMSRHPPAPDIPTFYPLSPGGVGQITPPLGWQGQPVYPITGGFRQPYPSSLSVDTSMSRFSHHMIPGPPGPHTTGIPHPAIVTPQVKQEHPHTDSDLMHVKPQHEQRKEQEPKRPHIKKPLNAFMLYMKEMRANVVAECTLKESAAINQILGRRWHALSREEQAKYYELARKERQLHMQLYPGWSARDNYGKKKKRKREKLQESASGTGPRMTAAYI
T3 sequence (P01106 whole entry): as the sequence (P01106 whole entry) above
Chain of Protein max (P61244 whole entry): as the sequence (P61244 whole entry) above
Chain of Transcription factor Jun (P05412 whole entry): as the sequence (P05412 whole entry) above

On to `CC1(C)CC[C@]2(C(=O)O)CC[C@]3(C)C(=CC[C@@H]4[C@@]5(C)CC[C@H](O[C@@H]6O[C@H](C(=O)O)[C@@H](O)[C@H](O[C@@H]7OC[C@H](O)[C@H](O)[C@H]7O)[C@H]6O)C(C)(C)[C@@H]5CC[C@]43C)[C@@H]2C1`, for which the Ratio IC50 in assay [1] is more than 100. In addition, the half-inhibitory concentration (IC50) in [2] was 30 µM; in assay [3], 4000 µM. As to `COC(=O)c1cc2cc(NC(=O)c3cc4cc(NC(=O)c5cc(NC(=O)OC(C)(C)C)cs5)ccc4[nH]3)ccc2[nH]1`, the values for the IC50 in assay [4] and in assay [5] were 31 µM and 6.2 µM, respectively. In turn, `CC(=O)N[C@H]1CSSC[C@@H](C(N)=O)NC(=O)CNC(=O)[C@H](CC(=O)O)NC(=O)[C@H](C)NC(=O)[C@H](CC(C)C)NC(=O)[C@H](CC(=O)O)NC(=O)[C@H](CC(C)C)NC(=O)[C@H](CCC(N)=O)NC(=O)CNC1=O` (Ac-CGQLDLADGC-NH2; disulfide 1-10) came in with an IC50 in assay [6] of 8 µM. In turn, `CC(C)c1ccc(/C=C2\SC(=S)N(CN3CCCCC3)C2=O)cc1` yielded an IC50 in assay [7] of 29 µM. Consider `COc1ccc(CNC(=O)c2cc3nc(-c4cccs4)cc(C(F)(F)F)n3n2)cc1`, for which the concentration for half-maximal inhibition (IC50) in assay [8] stood at 30 µM; in assay [9] it was 72 µM.

On to `COC(=O)c1cnc2ccc(NC(=O)c3ccc4c(c3)c3cc(NC(=O)c5cc6cc(NC(=O)CCCN(C)C)ccc6o5)ccc3n4C)cc2c1`, for which the IC50 was determined as 115 µM in assay [4] and 0.15 µM in assay [5]. As to `CCOC(=O)c1cnn(-c2ccccc2)c1NC(=O)c1cc2nc(-c3ccco3)cc(C(F)(F)Cl)n2n1`, the values for the IC50 in assay [8] and in assay [9] were 40 µM and 88 µM, respectively. For the same compound, the Ratio IC50 in [10] was more than 2. Compound `CCc1ccc(/C=C2\SC(=S)NC2=O)cc1` displayed an Activity in [11] of 5.3 µM. In addition, in assay [12], the half-inhibitory concentration (IC50) is 49 µM. Compound `COc1cc(/C=C/C(=O)/C=C(O)/C=C/c2cc(OC)c(O)c([N+](=O)[O-])c2)cc([N+](=O)[O-])c1O` showed an IC50 in assay [2] of 5.4 µM. In addition, the Ratio IC50 in [13] worked out at 90. Compound `O=[N+]([O-])c1ccc(Nc2ccccc2-c2ccccc2)c2nonc12` yielded an Activity in assay [11] of 2.8 µM. Regarding `CNC(=O)c1cc2c(cc1C(=O)NC[C@H](NS(=O)(=O)c1c(Cl)sc(Cl)c1Br)C(=O)OC(C)(C)C)CN(C(=O)CCC1CCN(C(=O)OC(C)(C)C)CC1)C2`, the IC50 in assay [14] worked out at 50 µM. In [6], `O=C(O)CCc1cc(C(=O)c2ccc(OC3CCCC3)cc2O)ccc1OCc1ccc2c(O)noc2c1` displayed an IC50 of 200 µM.

The values above are taken from ChEMBL document CHEMBL3217750, “Small-molecule inhibitors of dimeric transcription factors: Antagonism of proteinprotein and proteinDNA interactions” (Medchemcomm, 2012).
